Key:
CGRP receptor [1] = target: T1, CGRP receptor (Homo sapiens, UniProt O60894+Q16602); test: Cyclic AMP functional antagonism assay in SK-N-MC cells; format: cell-based; set-up: SK-N-MC cells that endogenously express the human CGRP receptor; endogenous in cells; host or cells: SK-N-MC cells; conditions: Table 2; inhibition of 0.3 nM CGRP-induced cAMP in SK-N-MC cells; read-out: cAMP Function IC50
Procedure: Cyclic AMP Functional Antagonism Assay. Antagonism of the compounds of invention was determined by measuring the formation of cyclic AMP (adenosine 3′5′-cyclic monophosphate) in SK-N-MC cells that endogenously express the human CGRP receptor. CGRP receptor complex is coupled with Gs protein and CGRP binding to this complex leads to the cyclic AMP production via Gs-dependent activation of an adenylate cyclase (Juaneda C. et al., TiPS, 2000; 21:432-438). Consequently, CGRP receptor antagonists inhibit CGRP—induced cyclic AMP formation in SK-N-MC cells (Doods H, et al., Br J Pharmacol, 2000; 129(3):420-423). For cyclic AMP measurements SK—N-MC cells were incubated with 0.3 nM CGRP alone or in the presence of various concentrations of the compounds of invention for 30 min at room temperature. Compounds of invention were pre-incubated with SK—N-MC cells for 15 min before the addition of CGRP to allow receptor occupancy (Edvinsson et al., Eur J Pharmacol, 2001, 415:39-44). Cyclic AMP was extracted using the lysis reagent and its concentration was determined by radioimmunoassay using RPA559 cAMP SPA Direct Screening Assay Kit (Amersham Pharmacia Biotech). IC50 values were calculated using Excel fit.

CGRP receptor [2] = target: T1, CGRP receptor; test: CGRP radioligand binding assay ([125I]-CGRP displacement, SK-N-MC homogenate); set-up: endogenous in cells; host or cells: SK-N-MC cells (homogenate/membrane pellet); conditions: displacement of [125I]-CGRP, SK-N-MC membranes
Procedure: CGRP Binding Assay. Tissue Culture. SK-N-MC cells were grown at 37° C. in 5% CO2 as a monolayer in medium consisting of MEM with Earle's salts and L-glutamine (Gibco) supplemented with 10% fetal bovine serum (Gibco). Cell Pellets. The cells were rinsed twice with phosphate-buffered saline (155 mM NaCl, 3.3 mM Na2HPO4, 1.1 mM KH2PO4, pH 7.4), and incubated for 5-10 min. at 4° C. in hypotonic lysis buffer consisting of 10 mM Tris (pH 7.4) and 5 mM EDTA. The cells were transferred from plates to polypropylene tubes (16×100 mm) and homogenized using a polytron. Homogenates were centrifuged at 32,000×g for 30 min. The pellets were resuspended in cold hypotonic lysis buffer with 0.1% mammalian protease inhibitor cocktail (Sigma) and assayed for protein concentration. The SK-N-MC homogenate was then aliquoted and stored at −80° C. until needed.
Radioligand Binding Assay. The compounds of invention were solubilized and carried through serial dilutions using 100% DMSO. Aliquots from the compound serial dilutions were further diluted 25 fold into assay buffer (50 mM Tris-Cl pH 7.5, 5 mM MgCl2, 0.005% Triton X-100) and transferred (volume 50 μl) into 96 well assay plates. [^125I]-CGRP (Amersham Biosciences) was diluted to 60 pM in assay buffer and a volume of […] was added to each well. SK-N-MC pellets were thawed, diluted in assay buffer with fresh 0.1% mammalian protease inhibitor cocktail (Sigma), and homogenized again. SK-N-MC homogenate (5 μg/well) was added in a volume of 100 μl. The assay plates were then incubated at room temperature for 2 h. Assays were stopped by addition of excess cold wash buffer (20 mM Tris-Cl pH 7.5, 0.1% BSA) immediately followed by filtration over glass fiber filters (Whatman GF/B) previously soaked in 0.5% PEI. Non-specific binding was defined with 1 μM beta-CGRP. Protein bound radioactivity was determined using a gamma or scintillation counter. The IC50 was defined as the concentration of a compound of invention required to displace 50% of radioligand binding.

T1 sequence (Q16602 23-461): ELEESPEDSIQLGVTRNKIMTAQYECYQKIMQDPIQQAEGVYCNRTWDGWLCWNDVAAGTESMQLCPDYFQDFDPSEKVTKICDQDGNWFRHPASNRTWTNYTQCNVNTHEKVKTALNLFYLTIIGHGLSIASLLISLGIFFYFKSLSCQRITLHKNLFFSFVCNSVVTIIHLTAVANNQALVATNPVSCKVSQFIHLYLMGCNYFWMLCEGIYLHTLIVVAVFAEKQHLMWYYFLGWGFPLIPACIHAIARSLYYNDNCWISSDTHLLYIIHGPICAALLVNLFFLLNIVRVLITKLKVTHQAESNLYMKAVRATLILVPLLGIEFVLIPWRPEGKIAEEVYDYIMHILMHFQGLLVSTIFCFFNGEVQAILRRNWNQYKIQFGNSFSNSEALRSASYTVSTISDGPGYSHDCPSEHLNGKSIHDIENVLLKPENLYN
T1 sequence (O60894 27-148): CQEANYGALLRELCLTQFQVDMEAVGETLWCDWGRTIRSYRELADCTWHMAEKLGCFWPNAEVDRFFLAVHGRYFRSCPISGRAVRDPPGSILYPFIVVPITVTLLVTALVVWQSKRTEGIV

O=C(N[C@@H]1Cc2cc(Cl)c3[nH]ncc3c2CN(Cc2ccccc2)C1=O)N1CCC(N2Cc3ccccc3NC2=O)CC1
IC50 (CGRP receptor [1]): 0.01 to 10 nM
IC50 (CGRP receptor [2]; Table 2): 0.01 to 10 nM

CC(C)(C)CCN1Cc2c(ccc3[nH]ncc23)C[C@@H](NC(=O)N2CCC(N3Cc4ccccc4NC3=O)CC2)C1=O
IC50 (CGRP receptor [1]): 0.01 to 10 nM
IC50 (CGRP receptor [2]; Table 2): 0.01 to 10 nM

CC(C)(C)CN1Cc2c(cc(Cl)c3[nH]ncc23)C[C@@H](NC(=O)N2CCC(N3Cc4ccccc4NC3=O)CC2)C1=O
IC50 (CGRP receptor [1]): 0.01 to 10 nM
IC50 (CGRP receptor [2]; Table 2): 0.01 to 10 nM

CC(C)(C)CN1Cc2c(cc(Cl)c3[nH]ncc23)C[C@@H](CC(=O)N2CCC(N3Cc4ccccc4NC3=O)CC2)C1=O
IC50 (CGRP receptor [1]): 0.01 to 10 nM
IC50 (CGRP receptor [2]; Table 2): 0.01 to 10 nM

CC(C)(C)CN1Cc2c(ccc3[nH]ncc23)CC(NC(=O)N2CCC(N3Cc4ccccc4NC3=O)CC2)C1=O (centres unmarked)
IC50 (CGRP receptor [1]): 0.01 to 10 nM
IC50 (CGRP receptor [2]; Table 2): 0.01 to 10 nM

O=C(NC1Cc2ccc3[nH]ncc3c2CN(CCc2ccncc2)C1=O)N1CCC(N2Cc3ccccc3NC2=O)CC1 (centres unmarked)
IC50 (CGRP receptor [1]): 0.01 to 10 nM
IC50 (CGRP receptor [2]; Table 2): 0.01 to 10 nM

O=C(N[C@@H]1Cc2cc3cn[nH]c3cc2CN(Cc2ccccc2)C1=O)N1CCC(N2Cc3ccccc3NC2=O)CC1
IC50 (CGRP receptor [2]; Table 2): 0.01 to 10 nM

CC(C)(C)CN1Cc2c(cc(Cl)c3[nH]ncc23)C[C@@H](CC(=O)N2CCC(N3Cc4cccc(F)c4NC3=O)CC2)C1=O
IC50 (CGRP receptor [1]): 0.01 to 10 nM
IC50 (CGRP receptor [2]; Table 2): 0.01 to 10 nM

CC(C)(C)CN1Cc2c(cc(Cl)c3[nH]ncc23)C[C@@H](CC(=O)N2CCC(N3Cc4ccccc4CC3=O)CC2)C1=O
IC50 (CGRP receptor [1]): 0.01 to 10 nM
IC50 (CGRP receptor [2]; Table 2): 0.01 to 10 nM

CC(C)(C)CN1Cc2c(cc(Cl)c3[nH]ncc23)C[C@@H](CC(=O)N2CCC(c3cc4ccccc4[nH]c3=O)CC2)C1=O
IC50 (CGRP receptor [1]): 0.01 to 10 nM
IC50 (CGRP receptor [2]; Table 2): 0.01 to 10 nM

CC(C)(C)CN1Cc2c(cc(Cl)c3[nH]ncc23)C[C@@H](CC(=O)N2CCC(n3cc(-c4ccccc4)[nH]c3=O)CC2)C1=O
IC50 (CGRP receptor [1]): 0.01 to 10 nM
IC50 (CGRP receptor [2]; Table 2): 0.01 to 10 nM

CC(C)(C)CN1Cc2c(cc(Cl)c3[nH]ncc23)C[C@@H](CC(=O)N2CCC(n3cc(-c4ccccn4)[nH]c3=O)CC2)C1=O
IC50 (CGRP receptor [1]): 0.01 to 10 nM
IC50 (CGRP receptor [2]; Table 2): 0.01 to 10 nM

CC(C)(C)CN1Cc2c(cc(Cl)c3[nH]ncc23)C[C@@H](CC(=O)N2CCC3(CC2)NC(=O)Nc2ccccc23)C1=O
IC50 (CGRP receptor [1]): 0.01 to 10 nM
IC50 (CGRP receptor [2]; Table 2): 0.01 to 10 nM

O=C(C[C@@H]1Cc2cc(Cl)c3[nH]ncc3c2CN(Cc2ccncc2)C1=O)N1CCC(N2Cc3ccccc3NC2=O)CC1
IC50 (CGRP receptor [1]): 0.01 to 10 nM
IC50 (CGRP receptor [2]; Table 2): 0.01 to 10 nM

O=C(C[C@@H]1Cc2cc(Cl)c3[nH]ncc3c2CN(Cc2ccncc2)C1=O)N1CCC(N2Cc3cccc(F)c3NC2=O)CC1
IC50 (CGRP receptor [1]): 0.01 to 10 nM
IC50 (CGRP receptor [2]; Table 2): 0.01 to 10 nM

O=C(C[C@@H]1Cc2cc(Cl)c3[nH]ncc3c2CN(Cc2ccncc2)C1=O)N1CCC(c2cc3ccccc3[nH]c2=O)CC1
IC50 (CGRP receptor [1]): 0.01 to 10 nM
IC50 (CGRP receptor [2]; Table 2): 0.01 to 10 nM

O=C(C[C@@H]1Cc2cc(Cl)c3[nH]ncc3c2CN(Cc2ccncc2)C1=O)N1CCC(n2cc(-c3ccccc3)[nH]c2=O)CC1
IC50 (CGRP receptor [1]): 0.01 to 10 nM
IC50 (CGRP receptor [2]; Table 2): 0.01 to 10 nM

O=C(C[C@@H]1Cc2cc(Cl)c3[nH]ncc3c2CN(Cc2ncc[nH]2)C1=O)N1CCC(N2Cc3ccccc3NC2=O)CC1
IC50 (CGRP receptor [1]): 0.01 to 10 nM
IC50 (CGRP receptor [2]; Table 2): 0.01 to 10 nM

Cc1cc2c(c3cn[nH]c13)CN(CC(C)(C)C)C(=O)[C@H](CC(=O)N1CCC(c3cc4ccccc4[nH]c3=O)CC1)C2
IC50 (CGRP receptor [2]; Table 2): 0.01 to 10 nM

Cc1cc2c(c3cn[nH]c13)CN(CC(F)(F)F)C(=O)[C@H](CC(=O)N1CCC(c3cc4ccccc4[nH]c3=O)CC1)C2
IC50 (CGRP receptor [2]; Table 2): 0.01 to 10 nM

CCc1cc2c(c3cn[nH]c13)CN(CC(F)(F)F)C(=O)[C@H](CC(=O)N1CCC(c3cc4cccc(F)c4[nH]c3=O)CC1)C2
IC50 (CGRP receptor [2]; Table 2): 10 to 100 nM

O=C(C[C@@H]1Cc2cc(Br)c3[nH]ncc3c2CN(CC2CC2)C1=O)N1CCC(c2cc3ccccc3[nH]c2=O)CC1
IC50 (CGRP receptor [2]; Table 2): 0.01 to 10 nM

COCCN1Cc2c(cc(Br)c3[nH]ncc23)C[C@@H](CC(=O)N2CCC(c3cc4ccccc4[nH]c3=O)CC2)C1=O
IC50 (CGRP receptor [2]; Table 2): 0.01 to 10 nM

CC(C)(C)CN1Cc2c(cc(Cl)c3[nH]ncc23)C[C@@H](CC(=O)N2CCC(c3cc4cc(F)c(F)cc4[nH]c3=O)CC2)C1=O
IC50 (CGRP receptor [2]; Table 2): 10 to 100 nM

CC(C)(C)CN1Cc2c(cc(Cl)c3[nH]ncc23)C[C@@H](CC(=O)N2CCC(c3cc4ccc(Cl)cc4[nH]c3=O)CC2)C1=O
IC50 (CGRP receptor [2]; Table 2): 0.01 to 10 nM

CC(C)(C)CN1Cc2c(cc(Cl)c3[nH]ncc23)C[C@@H](CC(=O)N2CCC(c3cc4ccc(F)cc4[nH]c3=O)CC2)C1=O
IC50 (CGRP receptor [2]; Table 2): 0.01 to 10 nM

CC(C)(C)CN1Cc2c(cc(Cl)c3[nH]ncc23)C[C@@H](CC(=O)N2CCC(c3cc4sc(Br)cc4[nH]c3=O)CC2)C1=O (mixture of isomers)
IC50 (CGRP receptor [2]; Table 1): 0.01 to 10 nM

CC(C)(C)CN1Cc2c(cc(Cl)c3[nH]ncc23)C[C@@H](CC(=O)N2CCC(c3cc4scc(Cl)c4[nH]c3=O)CC2)C1=O (mixture of isomers)
IC50 (CGRP receptor [2]; Table 1): 0.01 to 10 nM

CC(C)(C)CN1Cc2c(ccc3[nH]ncc23)C[C@@H](CC(=O)N2CCC(N3Cc4ccccc4NC3=O)CC2)C1=O [drawing 84]
IC50 (CGRP receptor [1]): 0.01 to 10 nM

CC(C)(C)CN1Cc2c(ccc3[nH]ncc23)C[C@@H](CC(=O)N2CCC(N3Cc4ccccc4NC3=O)CC2)C1=O [drawing 135]
IC50 (CGRP receptor [2]; Table 2): 100 to 1000 nM

Reference: patent US7470680B2, “Constrained compounds as CGRP-receptor antagonists” (Bristol-Myers Squibb Company, priority 2006, dated 2008)
